Measured values: PubChem BioAssay (NCI)
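Exposure lasted 48 hours, with cells grown in 96-well plates and compounds tested at five concentrations. The concentration for full growth arrest is given as TGI.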

How the values were obtained:
Assay in all cases: NCI anticancer screen, dose series, 48 h
ACHN renal = test system: ACHN renal
DMS 273 small cell lung = test system: DMS 273 small cell lung
K-562 leukemia = test system: K-562 leukemia
MALME-3M melanoma = test system: MALME-3M melanoma
LXFL 529 NSCLC = test system: LXFL 529 NSCLC
SF-539 CNS = test system: SF-539 CNS
U251 CNS = test system: U251 CNS
SNB-78 CNS = test system: SNB-78 CNS
NCI-H522 lung = test system: NCI-H522 lung
SNB-19 CNS = test system: SNB-19 CNS
NCI-H226 lung = test system: NCI-H226 lung
SK-MEL-28 melanoma = test system: SK-MEL-28 melanoma
SK-OV-3 ovarian = test system: SK-OV-3 ovarian
KM20L2 colon = test system: KM20L2 colon
COLO 205 colon = test system: COLO 205 colon
HOP-18 NSCLC = test system: HOP-18 NSCLC
HOP-92 NSCLC = test system: HOP-92 NSCLC
M14 melanoma = test system: M14 melanoma
HL-60(TB) leukemia = test system: HL-60(TB) leukemia
SN12C renal = test system: SN12C renal
DLD-1 colon = test system: DLD-1 colon
M19-MEL melanoma = test system: M19-MEL melanoma
SNB-75 CNS = test system: SNB-75 CNS
SF-268 CNS = test system: SF-268 CNS
UACC-62 melanoma = test system: UACC-62 melanoma
CAKI-1 renal = test system: CAKI-1 renal
IGROV1 ovarian = test system: IGROV1 ovarian
786-0 renal = test system: 786-0 renal
LOX IMVI melanoma = test system: LOX IMVI melanoma
HOP-62 NSCLC = test system: HOP-62 NSCLC
EKVX NSCLC = test system: EKVX NSCLC
OVCAR-8 ovarian = test system: OVCAR-8 ovarian
OVCAR-3 ovarian = test system: OVCAR-3 ovarian
OVCAR-5 ovarian = test system: OVCAR-5 ovarian
HCT-116 colon = test system: HCT-116 colon
UACC-257 melanoma = test system: UACC-257 melanoma
A498 renal = test system: A498 renal
HCC-2998 colon = test system: HCC-2998 colon
RXF-631 renal = test system: RXF-631 renal
MOLT-4 leukemia = test system: MOLT-4 leukemia
HCT-15 colon = test system: HCT-15 colon
RPMI-8226 leukemia = test system: RPMI-8226 leukemia
SK-MEL-2 melanoma = test system: SK-MEL-2 melanoma
UO-31 renal = test system: UO-31 renal
SF-295 CNS = test system: SF-295 CNS
DMS 114 small cell lung = test system: DMS 114 small cell lung
SR leukemia = test system: SR leukemia
OVCAR-4 ovarian = test system: OVCAR-4 ovarian
SW-620 colon = test system: SW-620 colon
CCRF-CEM leukemia = test system: CCRF-CEM leukemia
TK-10 renal = test system: TK-10 renal
HT29 colon = test system: HT29 colon
NCI-H23 lung = test system: NCI-H23 lung
SK-MEL-5 melanoma = test system: SK-MEL-5 melanoma
A549 NSCLC = test system: A549 NSCLC
NCI-H460 lung = test system: NCI-H460 lung
RXF 393 renal = test system: RXF 393 renal
KM12 colon = test system: KM12 colon

With `CCOc1ccc(NC(=O)/C(=C\c2ccc(C)cc2)C(C)=O)cc1` the TGI (ACHN renal) was greater than 100 µM, the TGI (DMS 273 small cell lung) was greater than 100 µM and the TGI (K-562 leukemia) was greater than 100 µM. It also gave a TGI (MALME-3M melanoma) greater than 100 µM, a TGI (LXFL 529 NSCLC) greater than 100 µM and a TGI (SF-539 CNS) greater than 100 µM. It also gave a TGI (U251 CNS) greater than 100 µM, a TGI (SNB-78 CNS) greater than 100 µM and a TGI (NCI-H522 lung) greater than 100 µM. The TGI (SNB-19 CNS) was greater than 100 µM, the TGI (NCI-H226 lung) was greater than 100 µM and the TGI (SK-MEL-28 melanoma) was greater than 100 µM. It also gave a TGI (SK-OV-3 ovarian) greater than 100 µM, a TGI (KM20L2 colon) greater than 100 µM and a TGI (COLO 205 colon) greater than 100 µM. It also gave a TGI (HOP-18 NSCLC) greater than 100 µM, a TGI (HOP-92 NSCLC) greater than 100 µM and a TGI (M14 melanoma) greater than 100 µM. The TGI (HL-60(TB) leukemia) was greater than 100 µM, the TGI (SN12C renal) was greater than 100 µM and the TGI (DLD-1 colon) was greater than 100 µM. The TGI (M19-MEL melanoma) was greater than 100 µM, the TGI (SNB-75 CNS) was greater than 100 µM and the TGI (SF-268 CNS) was greater than 100 µM. The TGI (UACC-62 melanoma) was greater than 100 µM, the TGI (CAKI-1 renal) was greater than 100 µM and the TGI (IGROV1 ovarian) was greater than 100 µM. It also gave a TGI (786-0 renal) greater than 100 µM, a TGI (LOX IMVI melanoma) greater than 100 µM and a TGI (HOP-62 NSCLC) greater than 100 µM. The TGI (EKVX NSCLC) was greater than 100 µM, the TGI (OVCAR-8 ovarian) was greater than 100 µM and the TGI (OVCAR-3 ovarian) was greater than 100 µM. The TGI (OVCAR-5 ovarian) was greater than 100 µM, the TGI (HCT-116 colon) was greater than 100 µM and the TGI (UACC-257 melanoma) was greater than 100 µM. The TGI (A498 renal) was greater than 100 µM, the TGI (HCC-2998 colon) was greater than 100 µM and the TGI (RXF-631 renal) was greater than 100 µM. For the same compound, the TGI (MOLT-4 leukemia) was greater than 100 µM, the TGI (HCT-15 colon) was greater than 100 µM and the TGI (RPMI-8226 leukemia) was greater than 100 µM. For the same compound, the TGI (SK-MEL-2 melanoma) was greater than 100 µM, the TGI (UO-31 renal) was greater than 100 µM and the TGI (SF-295 CNS) was greater than 100 µM. It also gave a TGI (DMS 114 small cell lung) greater than 100 µM, a TGI (SR leukemia) greater than 100 µM and a TGI (OVCAR-4 ovarian) greater than 100 µM. It also gave a TGI (SW-620 colon) greater than 100 µM, a TGI (CCRF-CEM leukemia) greater than 100 µM and a TGI (TK-10 renal) greater than 100 µM. For the same compound, the TGI (HT29 colon) was greater than 100 µM, the TGI (NCI-H23 lung) was greater than 100 µM and the TGI (SK-MEL-5 melanoma) was greater than 100 µM. It also gave a TGI (A549 NSCLC) greater than 100 µM.

`Cn1cnc([N+](=O)[O-])c1Sc1nc2ccccc2s1` gave a TGI (ACHN renal) of 28.8 µM, a TGI (DMS 273 small cell lung) of 2.71 µM and a TGI (MALME-3M melanoma) of 13.2 µM. The TGI (LXFL 529 NSCLC) was 24.7 µM, the TGI (SF-539 CNS) was 25.1 µM and the TGI (U251 CNS) was 24.4 µM. For the same compound, the TGI (SNB-78 CNS) was 33 µM, the TGI (SNB-19 CNS) was 29.4 µM and the TGI (NCI-H226 lung) was 22.1 µM. It also gave a TGI (NCI-H460 lung) of 24.3 µM, a TGI (SK-MEL-28 melanoma) of 21.1 µM and a TGI (SK-OV-3 ovarian) of 29.5 µM. For the same compound, the TGI (KM20L2 colon) was 23.5 µM, the TGI (RXF 393 renal) was 8.22 µM and the TGI (COLO 205 colon) was 14.5 µM. For the same compound, the TGI (KM12 colon) was 29.3 µM, the TGI (HOP-18 NSCLC) was 0.902 µM and the TGI (HOP-92 NSCLC) was 14.3 µM. It also gave a TGI (M14 melanoma) of 29 µM, a TGI (SN12C renal) of 17.6 µM and a TGI (DLD-1 colon) of 18.1 µM. It also gave a TGI (M19-MEL melanoma) of 24.3 µM, a TGI (SNB-75 CNS) of 29.3 µM and a TGI (SF-268 CNS) of 20.7 µM. For the same compound, the TGI (UACC-62 melanoma) was 25.7 µM, the TGI (CAKI-1 renal) was 6.9 µM and the TGI (IGROV1 ovarian) was 25.2 µM. It also gave a TGI (786-0 renal) of 24.7 µM, a TGI (LOX IMVI melanoma) of 31 µM and a TGI (HOP-62 NSCLC) of 86.1 µM. It also gave a TGI (EKVX NSCLC) of 17.8 µM, a TGI (OVCAR-8 ovarian) of 17.6 µM and a TGI (OVCAR-3 ovarian) of 14.5 µM. It also gave a TGI (OVCAR-5 ovarian) of 27.9 µM, a TGI (HCT-116 colon) of 18.7 µM and a TGI (HCC-2998 colon) of 22 µM. It also gave a TGI (RXF-631 renal) of 16.9 µM, a TGI (MOLT-4 leukemia) of 4.91 µM and a TGI (HCT-15 colon) of 14.6 µM. It also gave a TGI (RPMI-8226 leukemia) of 43.1 µM, a TGI (UO-31 renal) of 21.5 µM and a TGI (SF-295 CNS) of 44.6 µM. The TGI (DMS 114 small cell lung) was 14.9 µM, the TGI (SR leukemia) was 13.2 µM and the TGI (OVCAR-4 ovarian) was 13.1 µM. The TGI (SW-620 colon) was 15.1 µM, the TGI (HT29 colon) was 28.5 µM and the TGI (NCI-H23 lung) was 23.9 µM. For the same compound, the TGI (SK-MEL-5 melanoma) was 27.1 µM and the TGI (A549 NSCLC) was 22.8 µM.
